Among the data in PubChem BioAssay AID264 (DTP/NCI, 2004) are T/C values, retold here.

Records with an inconclusive call do not appear.

The test system of this assay is nude mice, LX-1 lung xenograft intrarenal, tumor weight T/C. The assay can be described thus: NCI In Vivo Anticancer Drug Screen. Data for tumor model Human Lung LX-1 Xenograft (intrarenal inoculation) in NU/NU Swiss (nude) mice. The settings on record: endpoint: mean tumor weight change, higher = larger tumour. In a few lines: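 Compound-treated mice carrying transplanted tumors were compared with vehicle-treated controls. Tumor size was the measured end point, and the value is the treated-group measurement divided by the control-group measurement (T/C).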
(In general: Xenograft models place foreign cells or tissue in a host animal.)

Where [1] appears, read: dose: 100.0 mg/kg/injection, schedule: Q04DX003 (sc), vehicle: Klucel (hydroxypropylcellulose) (HPC).
[2] abbreviates: dose: 600.0 mg/kg/injection, schedule: Q04DX003 (sc), vehicle: Klucel (hydroxypropylcellulose) (HPC).
[3] abbreviates: dose: 1200.0 mg/kg/injection, schedule: Q04DX003 (sc), vehicle: Klucel (hydroxypropylcellulose) (HPC).
The mark [4] stands for this setting: dose: 300.0 mg/kg/injection, schedule: Q04DX003 (sc), vehicle: Klucel (hydroxypropylcellulose) (HPC).
Setting [5] is: dose: 2400.0 mg/kg/injection, schedule: Q04DX003 (sc), vehicle: Klucel (hydroxypropylcellulose) (HPC).
[6] abbreviates: dose: 50.0 mg/kg/injection, schedule: Q01DX010 (sc), vehicle: Klucel (hydroxypropylcellulose) (HPC).
[7] abbreviates: dose: 300.0 mg/kg/injection, schedule: Q04DX003 (sc), vehicle: saline with Tween-80.
Setting [8] is: dose: 600.0 mg/kg/injection, schedule: Q04DX003 (sc), vehicle: saline with Tween-80.
The mark [9] stands for this setting: dose: 1200.0 mg/kg/injection, schedule: Q04DX003 (sc), vehicle: saline with Tween-80.
The mark [10] stands for this setting: dose: 2400.0 mg/kg/injection, schedule: Q04DX003 (sc), vehicle: saline with Tween-80.
Where [11] appears, read: dose: 25.0 mg/kg/injection, schedule: Q01DX010 (sc), vehicle: saline with Tween-80.
Where [12] appears, read: dose: 50.0 mg/kg/injection, schedule: Q01DX010 (sc), vehicle: saline with Tween-80.
Setting [13] is: dose: 100.0 mg/kg/injection, schedule: Q01DX010 (sc), vehicle: saline with Tween-80.
Where [14] appears, read: dose: 200.0 mg/kg/injection, schedule: Q01DX010 (sc), vehicle: saline with Tween-80.

`CSC1SCC2C(=O)N(C)C(C(C)C)C(=O)OCC(NC(=O)c3cnc4ccccc4n3)C(=O)NC(C)C(=O)N(C)C1C(=O)N(C)C(C(C)C)C(=O)OCC(NC(=O)c1cnc3ccccc3n1)C(=O)NC(C)C(=O)N2C` (configuration not stated): the T/C runs as follows: (dose: 15.0 micrograms/kg/injection, schedule: Q01DX010 (sc), vehicle: saline) 97 % of control; (dose: 30.0 micrograms/kg/injection, schedule: Q01DX010 (sc), vehicle: saline) 71 % of control; (dose: 60.0 micrograms/kg/injection, schedule: Q01DX010 (sc), vehicle: saline) 48 % of control; (dose: 120.0 micrograms/kg/injection, schedule: Q01DX010 (sc), vehicle: saline) 36 % of control; (dose: 240.0 micrograms/kg/injection, schedule: Q01DX010 (sc), vehicle: saline) 65 % of control.

For `NC(=O)CC(N)C(=O)O` (configuration not stated), the T/C reads like this: (dose: 800.0 mg/kg/injection, schedule: Q04DX003 (sc), vehicle: saline) 87 % of control; (dose: 1600.0 mg/kg/injection, schedule: Q04DX003 (sc), vehicle: saline) 102 % of control; (dose: 3200.0 mg/kg/injection, schedule: Q04DX003 (sc), vehicle: saline) 77 % of control.

With `O=S(=O)(SC(S(=O)(=O)c1ccccc1)S(=O)(=O)c1ccccc1)c1ccccc1`, the T/C under setting [1] was 115 % of control; the T/C (dose: 400.0 mg/kg/injection, schedule: Q04DX003 (sc), vehicle: Klucel (hydroxypropylcellulose) (HPC)) was 69 % of control; the T/C under setting [2] is 63 % of control; the T/C (dose: 800.0 mg/kg/injection, schedule: Q04DX003 (sc), vehicle: Klucel (hydroxypropylcellulose) (HPC)) was 77 % of control; the T/C under setting [3] is 65 % of control.

Take `COc1cccc2c1C(=O)c1c(O)c3c(c(O)c1C2=O)C[C@@](O)(/C(C)=N/NC(=O)c1cccc([N+](=O)[O-])c1)C[C@@H]3OC1CC(N)C(O)C(C)O1` (some centres not stated): the T/C was 68 % of control (dose: 8.0 mg/kg/injection, schedule: Q01DX010 (sc), vehicle: water); 78 % of control (dose: 16.0 mg/kg/injection, schedule: Q01DX010 (sc), vehicle: water); 54 % of control (dose: 24.0 mg/kg/injection, schedule: Q04DX003 (sc), vehicle: water); 9 % of control (dose: 48.0 mg/kg/injection, schedule: Q04DX003 (sc), vehicle: water); 25 % of control (dose: 96.0 mg/kg/injection, schedule: Q04DX003 (sc), vehicle: water).

For `CCC(=O)O[C@H]1CC[C@H]2[C@@H]3CCC4=CC(=O)CC[C@]4(C)[C@H]3CC[C@]12C`, the T/C is 77 % of control under setting [4], 59 % of control under setting [2], 65 % of control under setting [3] and 69 % of control under setting [5].

As for `C[CH2][Pb]([CH2]C)([CH2]C)[O]C(=O)COc1ccccc1`, the T/C is, setting by setting: (dose: 9.0 mg/kg/injection, schedule: Q04DX003 (sc), vehicle: saline with Tween-80) 47 % of control; (dose: 18.0 mg/kg/injection, schedule: Q04DX003 (sc), vehicle: saline with Tween-80) 47 % of control.

Regarding `Cc1cc2c(C(C)C)c(O)c(O)c(C=O)c2c(O)c1-c1c(C)cc2c(C(C)C)c(O)c(O)c(C=O)c2c1O`, the T/C reads like this: (dose: 37.5 mg/kg/injection, schedule: Q04DX003 (sc), vehicle: saline with Tween-80) 85 % of control; (dose: 75.0 mg/kg/injection, schedule: Q04DX003 (sc), vehicle: saline with Tween-80) 75 % of control.

Take `N#CC(C#N)=C/C=C/c1cccc([N+](=O)[O-])c1`: the T/C reads like this: (dose: 25.0 mg/kg/injection, schedule: Q01DX010 (sc), vehicle: Klucel (hydroxypropylcellulose) (HPC)) 90 % of control; under setting [6], 83 % of control; (dose: 100.0 mg/kg/injection, schedule: Q01DX010 (sc), vehicle: Klucel (hydroxypropylcellulose) (HPC)) 69 % of control; (dose: 400.0 mg/kg/injection, schedule: Q01DX010 (sc), vehicle: Klucel (hydroxypropylcellulose) (HPC)) 84 % of control; (dose: 800.0 mg/kg/injection, schedule: Q01DX010 (sc), vehicle: Klucel (hydroxypropylcellulose) (HPC)) 42 % of control.

For the compound `C[PH+](C)C.C[PH+](C)C.[Au]`, the T/C (dose: 5.0 mg/kg/injection, schedule: Q04DX003 (sc), vehicle: suspension in saline) is 111 % of control; the T/C (dose: 10.0 mg/kg/injection, schedule: Q04DX003 (sc), vehicle: suspension in saline) is 118 % of control; the T/C (dose: 20.0 mg/kg/injection, schedule: Q04DX003 (sc), vehicle: suspension in saline) was 76 % of control.

On to `COC1CC(C)C(OC)C2=CC(=O)C=C(NC(=O)/C(C)=C/C=C\C(C)C(OC(N)=O)/C(C)=C\C(C)C1OC)C2=O` (configuration not stated), for which the T/C by setting is: (dose: 12.5 mg/kg/injection, schedule: Q04DX003 (sc), vehicle: saline + alcohol) 35 % of control; (dose: 25.0 mg/kg/injection, schedule: Q04DX003 (sc), vehicle: saline + alcohol) 87 % of control; (dose: 50.0 mg/kg/injection, schedule: Q04DX003 (sc), vehicle: saline + alcohol) 73 % of control.

As to `CCC(C)Nc1ccc(N)cc1` (configuration not stated), the T/C runs as follows: (dose: 9.0 mg/kg/injection, schedule: Q04DX003 (sc), vehicle: Klucel (hydroxypropylcellulose) (HPC)) 80 % of control; (dose: 18.0 mg/kg/injection, schedule: Q04DX003 (sc), vehicle: Klucel (hydroxypropylcellulose) (HPC)) 104 % of control.

Turning to `CNc1cccnc1/C=N/NC(N)=S`, the T/C reads like this: under setting [7], 94 % of control; under setting [8], 57 % of control; under setting [9], 67 % of control; under setting [10], 75 % of control.

For `O=c1nc(Oc2ccccc2)nc2ncccn12`, the T/C was 190 % of control under setting [11], 165 % of control under setting [12], 118 % of control under setting [13] and 210 % of control under setting [14].

Regarding `CCN(CC)CC[n+]1ccc2c(C)c3[nH]c4ccc(O)cc4c3c(C)c2c1`, the T/C (dose: 25.0 mg/kg/injection, schedule: Q04DX003 (sc), vehicle: suspension in saline) is 172 % of control and the T/C (dose: 50.0 mg/kg/injection, schedule: Q04DX003 (sc), vehicle: suspension in saline) is 111 % of control.

For the compound `CC(=O)ON(C(C)=O)c1ccc(C(N)=O)cc1`, the T/C runs as follows: (dose: 150.0 mg/kg/injection, schedule: Q04DX003 (sc), vehicle: saline with Tween-80) 110 % of control; under setting [7], 114 % of control; under setting [8], 100 % of control; under setting [9], 97 % of control.

Take `[N-]=[N+]=C1N=CN=C1c1ncn[nH]1`: the T/C is, setting by setting: (dose: 12.5 mg/kg/injection, schedule: Q01DX010 (sc), vehicle: Klucel (hydroxypropylcellulose) (HPC)) 153 % of control; under setting [6], 55 % of control.

In the case of `CC1=NNC(=O)C1CCO` (configuration not stated), the T/C by setting is: under setting [4], 112 % of control; under setting [2], 115 % of control; under setting [3], 82 % of control; under setting [5], 106 % of control.

Take `O=c1cc(-c2ccccc2)[nH]c2c1CCCC2`: the T/C is, setting by setting: under setting [7], 114 % of control; under setting [8], 113 % of control; under setting [9], 113 % of control; under setting [10], 106 % of control.

As for `O=C1NC(c2ccccc2)N=C2Oc3ccccc3C=C12` (configuration not stated), the T/C runs as follows: (dose: 12.5 mg/kg/injection, schedule: Q01DX010 (sc), vehicle: saline with Tween-80) 186 % of control; under setting [11], 123 % of control; under setting [12], 85 % of control; under setting [13], 105 % of control; under setting [14], 58 % of control.

With `O=C(O)c1cc(Cc2ccc(O)c(C(=O)O)c2)ccc1O` (tested in a mixture with another compound), the T/C is, setting by setting: under setting [4], 89 % of control; under setting [2], 64 % of control; under setting [3], 91 % of control; under setting [5], 68 % of control.

Take `C(C#CCN1CCOCC1)#CCN1CCOCC1`: the T/C was 124 % of control under setting [4], 76 % of control under setting [2] and 84 % of control under setting [3].

Turning to `O=C(O)/C=C/C(=O)Nc1ccc(Cl)c(Cl)c1`, the T/C reads like this: under setting [1], 95 % of control; (dose: 200.0 mg/kg/injection, schedule: Q04DX003 (sc), vehicle: Klucel (hydroxypropylcellulose) (HPC)) 91 % of control.
